# In US7892754B2, “Hepatitis B virus pre-S1 derived synthetic polypeptides and uses thereof” (priority 2001, dated 2011):
# Ends that are not written are not given here. Peptide text beside a SMILES is read from it. * marks the point of attachment. Myristoyl = CCCCCCCCCCCCCC(=O)*
# Assays:
# DHBV [1] = test: In vivo DHBV infection inhibition in ducks (Dot Blot of viral DNA, Western Blot of L protein in serum); conditions: for L protein of DHBV in serum (Western Blot): 35 days post-infection, FIG. 6; for viral DNA in serum (Dot Blot): day 28 post-infection; for viral DNA in serum (Dot Blot) / viremia (Dot Blot of viral DNA in serum): FIG. 5; for viremia (Dot Blot of viral DNA in serum): ducks injected simultaneously with DHBV and peptide, days 9 and 15 post-infection
# Method: Ducks are simultaneously injected with DHBV and duck preS Myr 2-41 (DpreS2-41^myr), heron preS Myr 2-44 (HepreS2-44^myr), human preS Myr 2-68 (HupreS2-68^myr), duck preS Myr 2-21 (DpreS2-21^myr) or ddH2O. The viremia of infected animals is assessed by Dot Blot analysis of viral DNA, 5, 9, 15 and 28 days post-infection.
# DHBV [2] = test: In vitro DHBV infection of primary duck hepatocytes; assay type: cell-based
# HBV [3] = test: Polypeptide competition assay: inhibition of HBV infection of human hepatocyte cultures, HBsAg ELISA in supernatant; assay type: cell-based; conditions: for inhibitory activity against HBV infection, comparison of C-terminally truncated peptides: 0.8 to 800 nM; for effect on HBV infectivity (HBsAg secretion): FIG. 1
# Excerpt: (§1) Fragments of normal adult human liver were obtained from patients undergoing hepatic resection for liver metastases (the fragments were taken at a distance from the metastasis in macroscopically normal liver). Access to this biopsy material was in agreement with French laws and satisfied the requirements of the French National Ethics Committee. Hepatocytes were isolated by the procedure of Guguen-Guillouzo and Guillouzo and cultured in H medium supplemented with 3.5×10^−6 M hydrocortisone hemisuccinate, 2 mM L-glutamine, 50 mg of gentamicin per litre, 2% dimethyl sulfoxide, 5% adult human serum, and 5% FCS. Three days after seeding, the cells were infected.
# As an infectious inoculum, a 50-fold concentrated culture medium of HepG2 clone 2.2.15 cells was used, because of an unlimited supply and a constant quality.
# It was prepared as described previously. Differentiated cells were incubated with the concentrated infectious source, 10-fold diluted in culture medium supplemented with 5% PEG 8000 (Sigma), for 20 h at 37° C. as described previously (Gripon et al., 1988; Gripon et al., 1993). Control cultures were incubated with 5% PEG and 25% FCS diluted in phosphate-buffered saline (PBS) instead of the infectious source. At the end of the incubation, cells were washed three times with the culture medium and maintained in the presence of 2% DMSO and 5×10^−5 M hydrocortisone hemisuccinate and harvested at indicated times.
# (§2) Polypeptide competition assays were performed by pre-incubating cells with the analyzed polypeptide for 30 min, at 37° C., prior to the addition of the infectious source.
# HBsAg was detected in the medium by an ELISA kit (Monolisa AgHBs plus) obtained from Bio-Rad Laboratories. Values are expressed in ng/ml of supernatant or percent of control (absence of peptide).
# HBV [4] = test: Inhibition of HBV infection of human hepatocytes, RNA analysis (Northern blot); assay type: cell-based; conditions: myristoylation and C-terminal truncation of pre-S1 peptides
# Excerpt: as §1
# It was prepared as described previously. Differentiated cells were incubated with the concentrated infectious source, 10-fold diluted in culture medium supplemented with 5% PEG 8000 (Sigma), for 20 h at 37° C. as described previously (Gripon et al., 1988; Gripon et al., 1993). […]
# as §2
# Total cellular RNA was extracted by Total SV RNA kit (Promega, France), fractionated on a 1.5% agarose gel and analyzed by standard Northern blot procedure (Sambrook et al., 1989). […]
# [5] = 800 nM, HBsAg 7 days after infection, FIG. 2
# [6] = 8 μM, HBsAg 8 days after infection, FIG. 3
# [7] = HBsAg 7 days after infection, FIG. 2
# [8] = doses lower than 800 nM, FIG. 2
# [9] = 1 μM peptide, HBsAg 14 days post-infection
molecule,measurement,setting,value
CCCCCCCCCCCCCC(=O)NCC(=O)N[C@@H](CCC(N)=O)C(=O)N[C@@H](Cc1c[nH]cn1)C(=O)N1CCC[C@H]1C(=O)N[C@@H](C)C(=O)N[C@@H](CCCCN)C(=O)N[C@@H](CO)C(=O)N[C@@H](CCSC)C(=O)N[C@@H](CC(=O)O)C(=O)N[C@H](C(=O)N[C@@H](CCCNC(=N)N)C(=O)N[C@@H](CCCNC(=N)N)C(=O)N[C@H](C(=O)N[C@@H](CCC(=O)O)C(=O)NCC(=O)NCC(=O)N[C@@H](CCC(=O)O)C(=O)N[C@H](C(=O)N[C@@H](CC(C)C)C(=O)N[C@@H](CC(C)C)C(=O)N[C@@H](CC(N)=O)C(=O)N[C@@H](CCC(N)=O)C(=O)N[C@@H](CC(C)C)C(=O)N[C@@H](C)C(=O)NCC(=O)N[C@@H](CCCNC(=N)N)C(=O)N[C@@H](CCSC)C(=O)N[C@H](C(=O)N1CCC[C@H]1C(=O)N[C@@H](CCCCN)C(=O)NCC(=O)N[C@H](C(=O)N[C@@H](CC(C)C)C(=O)N[C@H](C(=O)N[C@@H](Cc1c[nH]c2ccccc12)C(=O)N[C@@H](CO)C(=O)NCC(=O)N[C@@H](CCCCN)C(=O)N[C@@H](Cc1ccccc1)C(=O)N1CCC[C@H]1C(=O)O)[C@@H](C)O)[C@@H](C)O)[C@@H](C)CC)[C@@H](C)CC)[C@@H](C)CC)C(C)C [DHBV Myr PreS 2-41] (Myristoyl-GQHPAKSMDVRRIEGGEILLNQLAGRMIPKGTLTWSGKFP-OH; C-terminus assumed),L protein of DHBV in serum (Western Blot),DHBV [1],not detected
same,viral DNA in serum (Dot Blot),DHBV [1],decreased or no longer detectable
same,viremia (Dot Blot of viral DNA in serum),DHBV [1],transitory viremia
same,inhibition of DHBV infection,DHBV [2],strong inhibitor
same,activity on HBV infection,HBV [3]; text summary referring to table 1,complete absence of activity
CCCCCCCCCCCCCC(=O)NCC(=O)N[C@@H](CCC(N)=O)C(=O)N[C@@H](Cc1c[nH]cn1)C(=O)N1CCC[C@H]1C(=O)N[C@@H](C)C(=O)N[C@@H](CCCCN)C(=O)N[C@@H](CO)C(=O)N[C@@H](CCSC)C(=O)N[C@@H](CC(=O)O)C(=O)N[C@H](C(=O)N[C@@H](CCCNC(=N)N)C(=O)N[C@@H](CCCNC(=N)N)C(=O)N[C@H](C(=O)N[C@@H](CCC(=O)O)C(=O)NCC(=O)NCC(=O)N[C@@H](CCC(=O)O)C(=O)N[C@H](C(=O)N[C@@H](CC(C)C)C(=O)N[C@@H](CC(C)C)C(=O)O)[C@@H](C)CC)[C@@H](C)CC)C(C)C [DpreS2-21^myr] (Myristoyl-GQHPAKSMDVRRIEGGEILL-OH),L protein of DHBV in serum (Western Blot),DHBV [1],not detected
same,viral DNA in serum (Dot Blot),DHBV [1],decreased or no longer detectable
same,viremia (Dot Blot of viral DNA in serum),DHBV [1],transitory viremia
same,in vitro inhibitory activity towards DHBV infection,DHBV [2]; primary duck hepatocytes,no in vitro inhibitory activity
CCCCCCCCCCCCCC(=O)NCC(=O)N[C@@H](CCC(N)=O)C(=O)N[C@@H](CC(N)=O)C(=O)N[C@@H](CC(C)C)C(=O)N[C@@H](CO)C(=O)N[C@H](C(=O)N[C@@H](CO)C(=O)N[C@@H](CC(N)=O)C(=O)N1CCC[C@H]1C(=O)N[C@@H](CC(C)C)C(=O)NCC(=O)N[C@@H](Cc1ccccc1)C(=O)N[C@@H](Cc1ccccc1)C(=O)N1CCC[C@H]1C(=O)N[C@@H](CC(=O)O)C(=O)N[C@@H](Cc1c[nH]cn1)C(=O)N[C@@H](CCC(N)=O)C(=O)N[C@@H](CC(C)C)C(=O)N[C@@H](CC(=O)O)C(=O)N1CCC[C@H]1C(=O)N[C@@H](C)C(=O)N[C@@H](Cc1ccccc1)C(=O)N[C@@H](CCCNC(=N)N)C(=O)N[C@@H](C)C(=O)N[C@@H](CC(N)=O)C(=O)N[C@H](C(=O)N[C@@H](C)C(=O)O)[C@@H](C)O)[C@@H](C)O [HBV Myr PreS 2-28],inhibition of HBV infection,HBV [3]; [5],50%
same,inhibitory activity against HBV infection,HBV [3]; [6],almost completely blocks HBV infection
same,"inhibitory activity against HBV infection, comparison of C-terminally truncated peptides",HBV [3]; [7],largely less active
CCCCCCCCCCCCCC(=O)NCC(=O)N[C@@H](CCC(N)=O)C(=O)N[C@@H](CC(N)=O)C(=O)N[C@@H](CC(C)C)C(=O)N[C@@H](CO)C(=O)N[C@H](C(=O)N[C@@H](CO)C(=O)N[C@@H](CC(N)=O)C(=O)N1CCC[C@H]1C(=O)N[C@@H](CC(C)C)C(=O)NCC(=O)N[C@@H](Cc1ccccc1)C(=O)N[C@@H](Cc1ccccc1)C(=O)N1CCC[C@H]1C(=O)N[C@@H](CC(=O)O)C(=O)N[C@@H](Cc1c[nH]cn1)C(=O)N[C@@H](CCC(N)=O)C(=O)N[C@@H](CC(C)C)C(=O)N[C@@H](CC(=O)O)C(=O)N1CCC[C@H]1C(=O)N[C@@H](C)C(=O)N[C@@H](Cc1ccccc1)C(=O)N[C@@H](CCCNC(=N)N)C(=O)N[C@@H](C)C(=O)N[C@@H](CC(N)=O)C(=O)N[C@H](C(=O)N[C@@H](C)C(=O)N[C@@H](CC(N)=O)C(=O)N1CCC[C@H]1C(=O)N[C@@H](CC(=O)O)C(=O)N[C@@H](Cc1c[nH]c2ccccc12)C(=O)N[C@@H](CC(=O)O)C(=O)N[C@@H](Cc1ccccc1)C(=O)N[C@@H](CC(N)=O)C(=O)N1CCC[C@H]1C(=O)N[C@@H](CC(N)=O)C(=O)N[C@@H](CCCCN)C(=O)O)[C@@H](C)O)[C@@H](C)O [HBV Myr PreS 2-38],inhibitory activity against HBV infection,HBV [3]; [6],almost completely blocks HBV infection
CCCCCCCCCCCCCC(=O)NCC(=O)N[C@@H](CCC(N)=O)C(=O)N[C@@H](CC(N)=O)C(=O)N[C@@H](CC(C)C)C(=O)N[C@@H](CO)C(=O)N[C@H](C(=O)N[C@@H](CO)C(=O)N[C@@H](CC(N)=O)C(=O)N1CCC[C@H]1C(=O)N[C@@H](CC(C)C)C(=O)NCC(=O)N[C@@H](Cc1ccccc1)C(=O)N[C@@H](Cc1ccccc1)C(=O)N1CCC[C@H]1C(=O)N[C@@H](CC(=O)O)C(=O)N[C@@H](Cc1c[nH]cn1)C(=O)N[C@@H](CCC(N)=O)C(=O)N[C@@H](CC(C)C)C(=O)N[C@@H](CC(=O)O)C(=O)N1CCC[C@H]1C(=O)N[C@@H](C)C(=O)N[C@@H](Cc1ccccc1)C(=O)N[C@@H](CCCNC(=N)N)C(=O)N[C@@H](C)C(=O)N[C@@H](CC(N)=O)C(=O)N[C@H](C(=O)N[C@@H](C)C(=O)N[C@@H](CC(N)=O)C(=O)N1CCC[C@H]1C(=O)N[C@@H](CC(=O)O)C(=O)N[C@@H](Cc1c[nH]c2ccccc12)C(=O)N[C@@H](CC(=O)O)C(=O)N[C@@H](Cc1ccccc1)C(=O)N[C@@H](CC(N)=O)C(=O)N1CCC[C@H]1C(=O)N[C@@H](CC(N)=O)C(=O)N[C@@H](CCCCN)C(=O)N[C@@H](CC(=O)O)C(=O)N[C@H](C(=O)N[C@@H](Cc1c[nH]c2ccccc12)C(=O)N1CCC[C@H]1C(=O)N[C@@H](CC(=O)O)C(=O)N[C@@H](C)C(=O)N[C@@H](CC(N)=O)C(=O)N[C@@H](CCCCN)C(=O)N[C@H](C(=O)NCC(=O)O)C(C)C)[C@@H](C)O)[C@@H](C)O)[C@@H](C)O [HBV Myr PreS 2-48],inhibitory activity against HBV infection by RNA analysis,HBV [4],highest inhibitory activity
same,"inhibitory activity against HBV infection, comparison of C-terminally truncated peptides",HBV [3]; [7],highest inhibitory activity
"HBV Myr PreS 2-68: myristoylated HBV pre-S1 peptide, amino acids 2-68",infection of ducks with DHBV,DHBV [1]; FIGS. 5 and 6,seems to delay but do not prevent infection
same,inhibitory activity against HBV infection,HBV [3]; [5],very efficient
same,inhibitory activity against HBV infection,HBV [3]; [8],less active
"HBV Myr PreS 2-78: myristoylated HBV pre-S1 peptide, amino acids 2-78",inhibitory activity against HBV infection,HBV [3]; [5],very efficient
same,effect on HBV infectivity (HBsAg secretion),HBV [3]; [9],almost completely abolish it
same,inhibitory activity against HBV infection,HBV [3]; [8],less active
same,effect on HBV infectivity (HBsAg secretion),HBV [3]; lower doses than 1 μM,partly inhibitory
"HBV PreS 1-78: non myristoylated peptide, pre-S1 amino acids 1 to 78 of Hepatitis B virus subtype ayw",effect on HBV infectivity (HBsAg secretion),HBV [3]; [9],only a faint effect
Myristoyl-GLNQSTFNPLGFFPSHQLDPLFKANAGSADWDKNPNKDPWPQAHDTA [WMHBV Myr PreS 2-48],comparative inhibitory activity towards HBV infection of human cells,"HBV [3]; decreasing peptide concentrations, HBsAg day 10 post-infection, FIG. 4",nearly as efficient as the HBV derived peptide
